Laboratory results as given in patent US10548942B2, “CXCR antagonistic peptides and uses thereof” (STC.UNM, priority 2013, dated 2020).
“Also recorded” adds a separate entry of the source.

Key:
cortical neurons = test: oxygen-glucose deprivation (OGD) model of stroke in primary neurons; type: cell-based, rat; settings: for protection from OGD: treatment at reoxygenation or 5, 15, 30, or 60 minutes after reoxygenation, vs vehicle
Experimental: Cortical neurons were obtained from Sprague-Dawley rat embryos at day 18 of gestation. Cortices were triturated digested with 0.025% trypsin in phosphate buffer saline (PBS) for 10 minutes. Digestion was stopped by the addition of Dulbecco's Modified Eagle Medium (DMEM) containing 10% fetal bovine serum (FBS). Trypsinized cells were filtered using […] disposable cell filters (Becton-Dickinson), washed twice with Neurobasal medium (Gibco) containing 4% FBS, and preplated 4 times for 30 minutes in 150 mm vacuum-plasma treated dishes (Becton-Dickinson). During these preplating steps, primarily non-neuronal cells adhere to the dish, thereby enriching the neuronal population. Enriched neurons were plated at a density of 50×10^3/cm2 in Neurobasal medium containing 4% FBS, 25 μM Glutamax (Gibco), and penicillin-streptomycin (Gibco) in while clear-bottomed 96-well plates (353377) or 24-well plates (353226) (Becton-Dickinson) coaled overnight with 50 μg/ml poly-D-lysine. At plating, spaces between wells in 96-well plates were filled with 50 μl sterile water to minimize evaporation of medium at the edges of the dish. Twenty-four hours later (1 day in vitro, 1 DIV), 50% of the medium was replaced with Neurobasal medium, 2% B27 (Gibco), and 4 μM cytosine arabinoside (AraC) (2 μM AraC final). At 5 DIV, 50% of the medium was replaced with Neurobasal, 2% B27. At 7 DIV, cortical cultures were 98% neurons as assessed by microtubule-associated protein 2 (MAP2) antibody labeling and flow cytometry analysis (data not shown).
Cortical neurons were deprived of oxygen and glucose by incubation in deoxygenated glucose-free Hank's buffered saline solution (HBSS). HBSS was prepared as follows: sodium chloride, NaCl, 8.0 g/L, potassium chloride, KCl, 0.4 g/L, potassium phosphate monobasic, KH2PO4, 0.06 g/L, sodium phosphate dibasic, Na2HPO4, 0.048 g/L, magnesium sulfate. MgSO4, 0.098 g/L, calcium chloride, CaCl2, 0.14 g/L, sodium bicarbonate, NaHCO3, 0.35 g/L, D-glucose, C6H12O6, 1.0 g/L. Solutions were adjusted to pH 7.4 and sterilized by vacuum filtration through 0.2 μm polyether sulfone (PES) membranes. Glucose-free HBSS was prepared by omitting glucose and adding an additional half molar amount of NaCl to adjust osmolarity (8.162 g/L NaCl). Glucose-free HBSS was deoxygenated in a gas washing bottle with 95% nitrogen, 5% CO2 for 20 minutes at a flow rate of 3 L/min in a 37° C. water bath. Culture dishes were washed twice with deoxygenated glucose-free HBSS and incubated for 2 hours in glucose-free deoxygenated HBSS (OGD). Normoxic control cells were handled identically but were incubated in a 5% CO2 incubator with normal HBSS pre-equilibrated in a 5% CO2 atmosphere overnight. […]

CXCR2 receptor = biological target: T1, CXCR2 receptor (Rattus norvegicus, UniProt P35407); test: ac-PGP-induced apoptosis in primary cortical neurons, TUNEL stain; type: cell-based
T1 construct: endogenous in cells; host or cells: primary cortical neurons from Sprague-Dawley rat embryos (E18)
T1 sequence (P35407 1-359): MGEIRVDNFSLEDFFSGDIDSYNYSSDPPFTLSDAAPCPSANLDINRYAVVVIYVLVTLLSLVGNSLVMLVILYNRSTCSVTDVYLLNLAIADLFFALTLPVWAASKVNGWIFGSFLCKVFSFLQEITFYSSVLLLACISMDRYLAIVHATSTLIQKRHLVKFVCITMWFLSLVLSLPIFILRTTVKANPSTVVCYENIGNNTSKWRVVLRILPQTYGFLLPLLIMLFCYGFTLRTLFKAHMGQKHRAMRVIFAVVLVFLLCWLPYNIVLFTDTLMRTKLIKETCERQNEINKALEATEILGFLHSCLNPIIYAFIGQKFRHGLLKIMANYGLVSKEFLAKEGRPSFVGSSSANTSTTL
Experimental: First, the mechanism by which ac-PGP induces apoptosis in cortical neurons was investigated. Because ac-PGP is reported to engage neutrophil CXCR2 receptors, whether an established CXCR2 receptor antagonist, SB225002, could influence ac-PGP neurotoxicity was tested.
Cortical neurons were obtained from Sprague-Dawley rat embryos at day 18 of gestation. Cortices were triturated digested with 0.025% trypsin in phosphate buffer saline (PBS) for 10 minutes. Digestion was stopped by the addition of Dulbecco's Modified Eagle Medium (DMEM) containing 10% fetal bovine serum (FBS). Trypsinized cells were filtered using […] disposable cell filters (Becton-Dickinson), washed twice with Neurobasal medium (Gibco) containing 4% FBS, and preplated 4 times for 30 minutes in 150 mm vacuum-plasma treated dishes (Becton-Dickinson). During these preplating steps, primarily non-neuronal cells adhere to the dish, thereby enriching the neuronal population. […] At 7 DIV, cortical cultures were 98% neurons as assessed by microtubule-associated protein 2 (MAP2) antibody labeling and flow cytometry analysis (data not shown). […]
Cortical neurons were obtained from Sprague-Dawley rat embryos at day 18 of gestation. […] At 7 DIV, cortical cultures were 98% neurons as assessed by microtubule-associated protein 2 (MAP2) antibody labeling and flow cytometry analysis (data not shown).

In the case of `O=C(Nc1ccc([N+](=O)[O-])cc1O)Nc1ccccc1Br` [SB225002], the “neuronal protection compared to administration at reoxygenation” value (cortical neurons; administered at 15 minutes post-reoxygenation) is reported as “significantly decreased; also recorded: significantly declined”, the “apoptosis after 2-hour OGD” value (cortical neurons; pretreatment, 24-hour reoxygenation, vs vehicle-treated controls) is reported as “significantly less apoptotic; also recorded: significant protection from OGD” and the “protection from OGD” value (cortical neurons) is reported as “significant protection”. The “protection from OGD” value (cortical neurons; listed as SB2225002) was “provided neuroprotection”, the “ac-PGP-induced apoptosis (TUNEL stain), dose comparison” value (CXCR2 receptor; 1 nM vs 0.01 and 0.1 nM) was “significantly less apoptotic” and the “ac-PGP-induced apoptosis (TUNEL stain)” value (CXCR2 receptor; pretreatment of primary cortical neurons before ac-PGP exposure, all doses, vs ac-PGP alone) was “significantly less apoptotic; also recorded: blocked ac-PGP neurotoxicity”.
